Experimental data from patent US9951128B2, “Caninized anti-NGF antibodies and methods thereof” (ZOETIS SERVICES LLC, priority 2012, dated 2018).

Experiment: Mean group body weight in the rat MIA study
Type: in vivo, Rat Ola Wistar
Conditions: morphine 10 mg/kg SC, mAbs 8 mg/kg SC
Description: Mean group body weight for all groups (g).

CN1CC[C@]23c4c5ccc(O)c4O[C@H]2[C@@H](O)C=C[C@H]3[C@H]1C5 [Morphine]
Mean group body weight, Baseline: 178.5 g
Mean group body weight, Day 7: 256.2 g
Mean group body weight, Day 14: 285.1 g
Mean group body weight, Day 21: 300.6 g
Mean group body weight, Day 27: 316 g
